According to US20130079299A1, “Arthritis Therapeutic Agent” (GLUCAN CORPORATION, priority 2010, published 2013):

How the values were obtained:
[1] = test system: Sprague-Dawley rats caused to have osteoarthritis; experiment: Osteoarthritis caused by anterior cruciate ligament transection and partial medial meniscectomy, 84 days administration
Protocol: Sprague-Dawley rats (male, 6 week-old, SLC., JAPAN) [ANNEX I-III] were prepared as laboratory animals.
Six experimental groups were formed, with 8 Sprague-Dawley Rats in each group. […] In addition, a negative control group was an OA control group which was treated with nothing after causing osteoarthritis, and a positive control group was administered 2 mg/kg of diclofenac sodium after causing osteoarthritis.
The medium for the administration was sterilized distilled water at 5 ml/kg.
For the positive control, 2 mg/kg of the diclofenac sodium was transdermally administered at 1 ml/kg of normal saline as a medium every day for 84 days.
Each experimental rat was anesthetized with Zoletile 50 (Vir bac Lab., France), and the left articular capsule was exposed and underwent anterior cruciate ligament transaction and partial medial meniscectomy to cause osteoarthritis. For the sham surgery group, the articular capsule was excised to observe the medial meniscus inside the organ and closed without surgical removal.
Weight change and knee joint thickness change were monitored and measured once a week for 84 days from administration, and on the final day, the maximum stretching angle of the knee joint and the knee joint thickness after exposing the capsule were measured under Safranin O dye, respectively. The Makin scores of the femur and tibia and the cartilage thickness were then histomorphometrically measured, and the articular cartilages of the femur and tibia were each evaluated for BrdU immunoreactivity.

[2] = test system: rheumatoid arthritis (RA) DBA mouse caused by collagen; experiment: Collagen-induced rheumatoid arthritis (RA) mouse model, histomorphometry of thymus, spleen and knee joint; assay type: in vivo
Text: Bone tissue was amputated from around the thymus and spleen and fixed in 10% neutral formalin, and was then dehydrated and paraffin embedded to provide a 3-4 μm longitudinal section, then dyed with Hematoxylineosin and observed under an optical microscope. In addition, the knee joint of both the rear legs were removed from the around connective tissue and fixed in 10% neutral formalin, and then it was decalcificated using a decalcification solution containing 24.4% of formic acid and 0.5 N of sodium hydroxide for 5 days. […] Then the section was dyed with Hematoxylineosin and observed under the optical microscope. […] DMI, Korea) in the view of a 40×-magnification microscope, and the thickness of articular cartilage of the femur and tibia of the knee joint, the proteoglycan loss, and erosion were evaluated by an automated image analyzer (DMI-300 Image Processing; DMI, Korea) in the view of a 100×-magnification microscope according to the known method [Dudler et al., 2000; van Holten et al., 20 04; Kim et al., 2007]. The proteoglycan loss was evaluated into 3 levels for stainability of Safranin O dye specialized for proteoglycans according to the known method [Williams et al., 1992; Dudler et al., 2000; van Holten et al., 2004]. In other words, 0 indicates no proteoglycan loss, and 3 indicates no stainability because of complete deflection. […] The RA(Rhematoid Arthritis)-induced mouse model using collagen is one of the animal models that are widely used for evaluating the efficacy on RA for various materials [Liu et al., 2008; Miyake et al., 2008; Pa nayi et al., 2008], and RA was caused by the auto-immunity.

[3] = diclofenac sodium 2 mg/kg transdermal daily 84 days
[4] = Diclofenac sodium treated group (dose not given)
[5] = Diclofenac sodium treated group (dose not given), average ± SD of 8 animals
[6] = Diclofenac sodium treated group (dose not given), ± SD of 16 joints
[7] = diclofenac sodium group (dose not given)

Compound: O=C(O)Cc1ccccc1Nc1c(Cl)cccc1Cl [Diclofenac sodium, diclofenac sodium]
- BrdU immunoreactive cell number in the femur articular cartilage, change compared to the OA control group [1, 3]: 9.52%
- BrdU immunoreactive cell number in the tibia articular cartilage, change compared to the OA control group [1, 3]: 1.56%
- Mankin score of the femur, change compared to the OA control group [1, 3]: −27.85%
- Mankin score of the tibia, change compared to the OA control group [1, 3]: −20.59%
- maximum stretching angle of knee joint, change compared to the OA control group [1, 3]: −18.18%
- thickness of the knee joint after exposing the joint capsule, change compared to the OA control group [1, 3]: −0.99%
- thickness of the knee joint in the final autopsy, change compared to the OA control group [1, 3]: −5.79%
- articular cartilage thickness of the femur, change compared to the OA control group ([1]; diclofenac sodium 2 mg/kg transdermal daily 84 days, b105): 35.11%
- thickness of the knee joint compared to osteoarthritis-caused control group over time ([1]; each of the three-dose Polycan and diclofenac sodium groups, from 21 days after administration, p<0.01 or p<0.05): significantly decreased
- Cortex thickness (thymus) [2, 4]: 1.333 ± 0.705 mm/lobules
- Total thickness (thymus) [2, 4]: 1.941 ± 0.916 mm/lobules
- Entire thickness (spleen) [2, 5]: 4.464 ± 0.58 mm/central part
- Number of white medulla (spleen) [2, 5]: 10.500 ± 2.121 /1 mm^2
- Thickness of white medulla (spleen) [2, 5]: 0.986 ± 0.304 mm/white medulla
- Erosion level (Max = 3), femur articular cartilage [2, 6]: 1.000 ± 0.000
- Erosion level (Max = 4), tibia articular cartilage [2, 6]: 0.500 ± 1.000
- Safranin level (Max = 3), femur articular cartilage [2, 6]: 0.500 ± 0.577
- Safranin level (Max = 3), tibia articular cartilage [2, 6]: 1.500 ± 0.577
- Thickness (mm) of tibia articular cartilage [2, 6]: 0.169 ± 0.024 mm
- Thickness of the femur articular cartilage [2, 6]: 0.470 ± 0.674 mm
- collagen-induced RA opinion (proteoglycan loss, erosion, cartilage thickness of knee joint) ([2]; all Polycan groups except 21.25 mg/kg in the tibia, diclofenac sodium group): remarkably suppressed
- Safranin O score of femur articular cartilage, change compared to the RA control group [2, 7]: −63.64%
- Safranin O score of the tibia articular cartilage, change compared to the RA control group [2, 7]: −29.41%
- diameter of the spleen white medulla, change compared to the RA control group [2, 7]: −8.14%
- entire spleen thickness, change compared to the RA control group [2, 7]: 17.49%
- entire thymus thickness, change compared to the RA control group [2, 7]: −2.80%
- erosion score of the femur articular cartilage, change compared to the RA control group [2, 7]: −36.00%
- erosion score of the tibia articular cartilage, change compared to the RA control group [2, 7]: −75.00%
- number of spleen white medulla, change compared to the RA control group [2, 7]: 5.00%
- thickness of the femur joint cartilage, change compared to the RA control group [2, 7]: 333.70%
- thickness of the thymus cortex, change compared to the RA control group [2, 7]: 18.83%
- thickness of the tibia articular cartilage, change compared to the RA control group [2, 7]: 38.75%
